Data published in US8846671B2, “Heterocyclic alkynyl benzene compounds and medical compositions and uses thereof” (Guangzhou Institute of Biomedicine and Health, Chinese …, priority 2010, dated 2014).
pIC50: −log10 of the molar value. Counter-ions that a name gives are not always drawn. Like-named read-outs stand apart in the source and are kept apart here. Each block holds one compound with its values, some of them ahead of it.

What was measured:
[1] = Pharmacokinetics and bioavailability in rats; assay type: in vivo; settings: SD rats; for bioavailability / BA(% Oral bioavailability): calculated according to AUC data, PO vs IV; for bioavailability: read-out: BA(% Oral bioavailability)
Description: Pharmacokinetics and bioavailability in rats. […] The blood samples were collected at the proper time points after administration, add heparin-anticoagulant, and the supernatants of the blood samples were collected (3000 rpm, 10 min) and stored at -20° C. for HPLC-MS analysis. After protein-precipitation procedure with acetonitrile, supernatants were collected after 3000 rpm, 10 min for analysis with HPLC-MS. The data were analyzed with software DAS2.0 to separately acquire the parameters of compartment models and non-compartment models. The bioavailability was calculated according to AUC data.

[2] = system: K562 (human chronic myelogenous leukemia cell line); assay: tumor cell proliferation, MTT or CCK8 assay, 72 h incubation; assay type: cell-based; settings: K562, 72 h, read-out: IC50 on tumor cell proliferation, K562; for IC50: MTT or CCK8, nM
Description: (§1) The heterocyclic alkynyl benzene compounds at different concentrations (1×10^−10˜1×10^−5M) were incubated for 72 hours individually applied to 6 cell lines K562 (human CML cell line), MOLT-4 (human ALL cell line), U937 (human CML cell line), MEG-01 (human CML cell line), L78 (human lung cancer cell line), Ba/F3-T315I (mice Pro-B cells transformed with Bcr-AblT315I and STI57′-resistant cell line). After incubation for 72 hrs, cell proliferation was then determined by MTT assay or CCK8 assay, and 4 hr incubation is further conducted, the absorbance at 570 nm (CCK8, 450 nm, 650 nm) was measured using enzyme Microplate Reader. […] Based on the inhibition potency of the heterocyclic alkynyl benzene compounds on the cell proliferation, IC50 values were calculated and summarized in the Table 1 and Table 2 (The compounds used were synthesized by Examples 1-40, and the compounds are marked with Drug No. series in Table 1).

[3] = system: MOLT-4 (Human acute lymphoblastic leukemia cell line); assay: as above; assay type: cell-based; settings: MOLT-4, 72 h, read-out: IC50 on tumor cell proliferation, MOLT-4; for IC50: MTT or CCK8, nM
Description: as §1

[4] = system: K562R cells (imatinib-resistant cell line); assay: as above; assay type: cell-based; settings: Homo sapiens, K-562R, read-out: IC50 on tumor cell proliferation, K562R cells
[5] = target: BAF3-T315I cells (Ba/F3 cell line stably expressing BCR/ABL T315I) (Homo sapiens, UniProt P00519, T315I, cells depend on it); assay: as above; assay type: cell-based, mice
Description: The heterocyclic alkynyl benzene compounds at different concentrations (1×10^−10˜1×10^−5M) were incubated for 72 hours individually applied to 6 cell lines K562 (human CML cell line), MOLT-4 (human ALL cell line), U937 (human CML cell line), MEG-01 (human CML cell line), L78 (human lung cancer cell line), Ba/F3-T315I (mice Pro-B cells transformed with Bcr-AblT315I and STI57′-resistant cell line). After incubation for 72 hrs, cell proliferation was then determined by MTT assay or CCK8 assay, and 4 hr incubation is further conducted, the absorbance at 570 nm (CCK8, 450 nm, 650 nm) was measured using enzyme Microplate Reader.

[6] = both sexes, Sprague-Dawley, rat, plasma, iv, 10 mg/kg, IV 10 mg/kg
[7] = both sexes, Sprague-Dawley, rat, plasma, po, 20 mg/kg, PO 20 mg/kg
[8] = both sexes, Sprague-Dawley, rat, plasma, po
[9] = both sexes, Sprague-Dawley, rat, plasma, iv, 2.5 mg/kg, IV 2.5 mg/kg
[10] = both sexes, Sprague-Dawley, rat, plasma, po, 25 mg/kg, PO 25 mg/kg
[11] = both sexes, Sprague-Dawley, rat, plasma, po, 25 mg/kg, PO 25 mg/kg, read-out: Cmax
[12] = both sexes, Sprague-Dawley, rat, plasma, po, 25 mg/kg, PO 25 mg/kg, read-out: Tmax
[13] = both sexes, Sprague-Dawley, rat, plasma, iv, 5 mg/kg, IV 5 mg/kg
[14] = both sexes, Sprague-Dawley, rat, plasma, iv, 5 mg/kg, IV 5 mg/kg, read-out: Cmax
[15] = both sexes, Sprague-Dawley, rat, plasma, iv, 5 mg/kg, IV 5 mg/kg, read-out: Tmax
[16] = both sexes, Sprague-Dawley, rat, plasma, iv, 25 mg/kg, IV 25 mg/kg
[17] = both sexes, Sprague-Dawley, rat, plasma, po, 5 mg/kg, PO 5 mg/kg
[18] = Ba/F3 expressing BCR/ABL T315I, 72 h, Table 1; read-out: IC50 on tumor cell proliferation, BAF3-T315I cells
[19] = IV 5 mg/kg, dihydrochloride, 5 mg/kg
[20] = PO 25 mg/kg, dihydrochloride, 25 mg/kg

AUC(0-inf) [1, 6]: 305000 ng·h/mL
half-life [1, 6]: 43.9 h
Cmax ([1]; both sexes, Sprague-Dawley, rat, plasma, iv, 10 mg/kg, IV 10 mg/kg, read-out: Cmax): 19600 ng/mL
Tmax ([1]; both sexes, Sprague-Dawley, rat, plasma, iv, 10 mg/kg, IV 10 mg/kg, read-out: Tmax): 0.033 h
AUC(0-inf) [1, 7]: 70400 ng·h/mL
half-life [1, 7]: 7.55 h
Cmax ([1]; both sexes, Sprague-Dawley, rat, plasma, po, 20 mg/kg, PO 20 mg/kg, read-out: Cmax): 1900 ng/mL
Tmax ([1]; both sexes, Sprague-Dawley, rat, plasma, po, 20 mg/kg, PO 20 mg/kg, read-out: Tmax): 20 h
bioavailability [1, 8]: 11.5%
Compound: Cc1cn(-c2cc(NC(=O)c3ccc(C)c(C#Cc4cnc(NC(C)C)nc4)c3)cc(C(F)(F)F)c2)cn1 [D752 mesylate salt, 3-(2-(2-(isopropylamino)pyrimidin-5-yl)ethynyl)-4-methyl-N-(3-(4-methyl-1H-imidazol-1-yl)-5-(trifluoromethyl)phenyl)benzamide]

AUC(0-inf) [1, 9]: 3740 ng·h/mL
half-life [1, 9]: 26.2 h
Cmax ([1]; both sexes, Sprague-Dawley, rat, plasma, iv, 2.5 mg/kg, IV 2.5 mg/kg, read-out: Cmax): 510 ng/mL
Tmax ([1]; both sexes, Sprague-Dawley, rat, plasma, iv, 2.5 mg/kg, IV 2.5 mg/kg, read-out: Tmax): 0.033 h
AUC(0-inf) [1, 10]: 23700 ng·h/mL
half-life [1, 10]: 8.3 h
Cmax [1, 11]: 1260 ng/mL
Tmax [1, 12]: 6.25 h
bioavailability [1, 8]: 63.3%
Compound: CCNc1ncc(C#Cc2cc(C(=O)Nc3cc(-n4cnc(C)c4)cc(C(F)(F)F)c3)ccc2C)cn1 [D755 hydrochloride salt, 3-(2-(2-(ethylamino)pyrimidin-5-yl)ethynyl)-4-methyl-N-(3-(4-methyl-1H-imidazol-1-yl)-5-(trifluoromethyl)phenyl)benzamide]

AUC(0-∞) ([1]; PO 25 mg/kg, 25 mg/kg): 62208 ng·h/mL
Tmax ([1]; PO 25 mg/kg, 25 mg/kg): 7.75 h
BA(% Oral bioavailability) [1]: 19%
AUC(0-inf) [1, 13]: 65500 ng·h/mL
half-life [1, 13]: 5.6 h
Cmax [1, 14]: 15300 ng/mL
Tmax [1, 15]: 0.033 h
half-life [1, 10]: 7.18 h
Cmax [1, 11]: 3620 ng/mL
Compound: Cc1cn(-c2cc(NC(=O)c3ccc(C)c(C#Cc4cnc5[nH]ncc5c4)c3)cc(C(F)(F)F)c2)cn1 [D767 hydrochloride salt, 3-(2-(1H-pyrazolo[3,4-b]pyridin-5-yl)ethynyl)-4-methyl-N-(3-(4-methyl-1H-imidazol-1-yl)-5-(trifluoromethyl)phenyl)benzamide]

BA(% Oral bioavailability) [1]: 27.1%
AUC(0-inf) [1, 16]: 48600 ng·h/mL
half-life [1, 16]: 7.8 h
Cmax ([1]; both sexes, Sprague-Dawley, rat, plasma, iv, 25 mg/kg, IV 25 mg/kg, read-out: Cmax): 3090 ng/mL
Tmax ([1]; both sexes, Sprague-Dawley, rat, plasma, iv, 25 mg/kg, IV 25 mg/kg, read-out: Tmax): 2 h
AUC(0-inf) [1, 17]: 35800 ng·h/mL
half-life [1, 17]: 7.5 h
Cmax ([1]; both sexes, Sprague-Dawley, rat, plasma, po, 5 mg/kg, PO 5 mg/kg, read-out: Cmax): 11000 ng/mL
Tmax ([1]; both sexes, Sprague-Dawley, rat, plasma, po, 5 mg/kg, PO 5 mg/kg, read-out: Tmax): 0.033 h
Compound: CNc1ncc(C#Cc2cc(C(=O)Nc3cc(-n4cnc(C)c4)cc(C(F)(F)F)c3)ccc2C)cn1 [D800 hydrochloride salt, 4-methyl-N-(3-(4-methyl-1H-imidazol-1-yl)-5-(trifluoromethyl)phenyl)-3-(2-(2-(methylamino)pyrimidin-5-yl)ethynyl)benzamide]

IC50 [2]: 0.724 nM
IC50 [3]: > 100 nM
pIC50 ([4]; imatinib-resistant K562R): 7.24
GI50 [5, 18]: 19.5 nM
Compound: Cc1ccc(C(=O)Nc2cccc(C(F)(F)F)c2)cc1C#Cc1cnc2[nH]ncc2c1 [D821, 3-(2-(1H-pyrazolo[3,4-b]pyridin-5-yl)ethynyl)-4-methyl-N-(3-(trifluoromethyl)phenyl)benzamide]

AUC(0-∞) [1, 19]: 2922.411 ng·h/mL
Cmax [1, 19]: 1375.625 ng/mL
T1/2 [1, 19]: 5.557 h
Tmax [1, 19]: 0.067 h
AUC(0-∞) [1, 20]: 7108.253 ng·h/mL
Cmax [1, 20]: 390.5 ng/mL
T1/2 [1, 20]: 10.55 h
BA(% Oral bioavailability) ([1]; dihydrochloride): 48.7%
Tmax [1, 12]: 6 h
Compound: Cc1ccc(C(=O)Nc2ccc(CN3CCN(C)CC3)c(C(F)(F)F)c2)cc1C#Cc1cnc2[nH]ncc2c1 [D824 hydrochloride salt, 3-(2-(1H-pyrazolo[3,4-b]pyridin-5-yl)ethynyl)-4-methyl-N-(4-((4-methylpiperazin-1-yl)methyl)-3-(trifluoromethyl)phenyl)benzamide dihydrochloride]

AUC(0-inf) [1, 13]: 11800 ng·h/mL
half-life [1, 13]: 11.7 h
Cmax [1, 14]: 2330 ng/mL
Tmax [1, 15]: 0.033 h
AUC(0-inf) [1, 10]: 34600 ng·h/mL
half-life [1, 10]: 11.5 h
Cmax [1, 11]: 1700 ng/mL
Tmax [1, 12]: 4.75 h
bioavailability [1, 8]: 58.5%
Compound: Cc1ccc(C(=O)Nc2ccc(CN3CCN(C)CC3)c(C(F)(F)F)c2)cc1C#Cc1cnc(NC2CC2)nc1 [D825 mesylate salt, 3-(2-(2-(cyclopropylamino)pyrimidin-5-yl)ethynyl)-4-methyl-N-(4-((4-methylpiperazin-1-yl)methyl)-3-(trifluoromethyl)phenyl)benzamide trimesylate]

IC50 [2]: 2.68 nM
IC50 [3]: 1850 nM
pIC50 ([4]; imatinib-resistant K562R): 7.23
GI50 [5, 18]: 29.8 nM
Compound: Cc1cn(-c2cc(NC(=O)c3ccc(C)c(C#Cc4ccc(N)nc4)c3)cc(C(F)(F)F)c2)cn1 [D827, 3-(2-(6-aminopyridin-3-yl)ethynyl)-4-methyl-N-(3-(4-methyl-1H-imidazol-1-yl)-5-(trifluoromethyl)phenyl)benzamide]

pIC50 [2]: 7.51
pIC50 [3]: < 7.00
pIC50 [4]: 5.51
GI50 ([5]; read-out: IC50 on tumor cell proliferation, BAF3-T315I cells; Ba/F3 expressing BCR/ABL T315I, 72 h, Table 1): 2480 nM
Compound: Cc1cn(-c2cc(NC(=O)c3ccc(C)c(C#Cc4cnc(NC5CCCCC5)nc4)c3)cc(C(F)(F)F)c2)cn1 [D828, 3-(2-(2-(cyclohexylamino)pyrimidin-5-yl)ethynyl)-4-methyl-N-(3-(4-methyl-1H-imidazol-1-yl)-5-(trifluoromethyl)phenyl)benzamide]

AUC(0-inf) [1, 13]: 107000 ng·h/mL
half-life [1, 13]: 5.24 h
Cmax [1, 14]: 64200 ng/mL
Tmax [1, 15]: 0.033 h
AUC(0-inf) [1, 10]: 73900 ng·h/mL
half-life [1, 10]: 4.66 h
Cmax [1, 11]: 9520 ng/mL
Tmax [1, 12]: 2.25 h
bioavailability [1, 8]: 13.8%
Compound: Cc1ccc(C(=O)Nc2cc(-n3ccnc3)cc(C(F)(F)F)c2)cc1C#Cc1cnc2[nH]ncc2c1 [D831 mesylate salt, N-(3-(1H-imidazol-1-yl)-5-(trifluoromethyl)phenyl)-3-(2-(1H-pyrazolo[3,4-b]pyridin-5-yl)ethynyl)-4-methylbenzamide]

AUC(0-inf) [1, 13]: 8540 ng·h/mL
half-life [1, 13]: 16.9 h
Cmax [1, 14]: 976 ng/mL
Tmax [1, 15]: 0.033 h
AUC(0-inf) [1, 10]: 3470 ng·h/mL
half-life [1, 10]: 8.81 h
Cmax [1, 11]: 233 ng/mL
Tmax [1, 12]: 4 h
bioavailability [1, 8]: 8.1%
Compound: Cc1ncn(-c2cc(NC(=O)c3ccc(C)c(C#Cc4cnc5[nH]ncc5c4)c3)cc(C(F)(F)F)c2)n1 [D835 hydrochloride salt, 3-(2-(1H-pyrazolo[3,4-b]pyridin-5-yl)ethynyl)-4-methyl-N-(3-(3-methyl-1H-1,2,4-triazol-1-yl)-5-(trifluoromethyl)phenyl)benzamide]
